ChEMBL document CHEMBL1649066, “An imidazopiperidine series of CCR5 antagonists for the treatment of HIV: the discovery of N-{(1S)-1-(3-fluorophenyl)-3-[(3-endo)-3-(5-isobutyryl-2-methyl-4,5,6,7-tetrahydro-1H-imidazo[4,5-c]pyridin-1-yl)-8-azabicyclo[3.2.1]oct-8-yl]propyl}acetamide (PF-232798)” (J Med Chem, 2011)

Legend:
[1] = Tmax in dog at 0.5 mg/kg, po; format: ADME, organism-based, Canis lupus familiaris; parameters: dose 0.5 mg/kg, route oral; details: in vivo
[2] = system: Canis familiaris; experiment: fCmax in dog at 0.5 mg/kg, po; format: ADME, organism-based, Canis lupus familiaris; parameters: dose 0.5 mg/kg, route oral; details: in vivo
[3] = Tmax in rat at 10 mg/kg, po; format: ADME, organism-based; parameters: dose 10 mg/kg, route oral; details: in vivo
[4] = system: Rattus norvegicus; experiment: fCmax in rat at 10 mg/kg, po; format: ADME, organism-based; parameters: dose 10 mg/kg, route oral; details: in vivo
[5] = Apparent permeability from apical to basolateral side of human Caco2 cells; details: Caco-2
[6] = Apparent permeability from basolateral to apical side of human Caco2 cells; details: Caco-2
[7] = Intrinsic clearance in human liver microsomes assessed per mg of protein; format: ADME, Microsome
[8] = Plasma protein binding in rat at 1 mg/kg, iv and 10 mg/kg, po; format: ADME, organism-based; details: read-out: PPB (converted)
[9] = Clearance in rat at 1 mg/kg, iv and 10 mg/kg, po; format: ADME, organism-based; details: in vivo
[10] = system: Rattus norvegicus; experiment: Unbound clearance in rat at 1 mg/kg, iv and 10 mg/kg, po; format: ADME, organism-based; details: in vivo
[11] = Half life in rat at 1 mg/kg, iv and 10 mg/kg, po; format: ADME, organism-based; details: in vivo
[12] = Oral bioavailability in rat at 10 mg/kg; format: ADME, organism-based; details: in vivo
[13] = Absorption in rat at 1 mg/kg, iv and 10 mg/kg, po; format: ADME, organism-based; details: in vivo, read-out: Activity
[14] = Plasma protein binding in dog at 0.5 mg/kg, iv and 1 mg/kg, po; format: ADME, organism-based, Canis lupus familiaris; details: read-out: PPB (converted)
[15] = system: Canis familiaris; experiment: Unbound clearance in dog at 0.5 mg/kg, iv and 1 mg/kg, po; format: ADME, organism-based, Canis lupus familiaris; details: in vivo
[16] = Volume of distribution in dog at 0.5 mg/kg, iv and 1 mg/kg, po; format: ADME, organism-based, Canis lupus familiaris; details: in vivo
[17] = Half life in dog at 0.5 mg/kg, iv and 1 mg/kg, po; format: ADME, organism-based, Canis lupus familiaris; details: in vivo
[18] = Oral bioavailability in dog at 1 mg/kg; format: ADME, organism-based, Canis lupus familiaris; details: in vivo
[19] = Absorption in dog at 0.5 mg/kg, iv and 1 mg/kg, po; format: ADME, organism-based, Canis lupus familiaris; details: in vivo, read-out: Activity
[20] = Intrinsic clearance in rat liver microsomes assessed per mg of protein; format: ADME, Microsome
[21] = Intrinsic clearance in dog liver microsomes assessed per mg of protein; format: ADME, Canis lupus familiaris, Microsome

Tmax [1]: 1.5 h | Cmax_unbound [2]: 80 nM | Tmax [3]: 2 h | Cmax_unbound [4]: 73 nM | Papp A→B [5]: < 1 ×10⁻⁶ cm/s | Papp B→A [6]: 12 ×10⁻⁶ cm/s | microsomal CLint [7]: 49 µL/min/mg | fraction unbound [8]: 0.54 | clearance [9]: 74 mL/min/kg | CL [10]: 137 mL/min/kg | half-life [11]: 2.3 h | bioavailability [12]: 6% | Fa [13]: 20% | fraction unbound [14]: 0.4 | CL [15]: 53 mL/min/kg | Vd [16]: 4.3 L/kg | half-life [17]: 2.3 h | bioavailability [18]: 42% | Fa [19]: 70% | microsomal CLint [20]: < 6 µL/min/mg | microsomal CLint [21]: < 9 µL/min/mg
Structure (SMILES): Cc1nnc(C(C)C)n1[C@@H]1C[C@H]2CC[C@@H](C1)N2CC[C@H](NC(=O)C1CCC(F)(F)CC1)c1ccccc1 [MARAVIROC]
